Data reported in ChEMBL document CHEMBL3407456, “Glycosylated enfuvirtide: a long-lasting glycopeptide with potent anti-HIV activity” (J Med Chem, 2015).

Columns and labels:
[1] = biological target: GP41 (Human immunodeficiency virus 1) (UniProt Q76270); test: Binding affinity to HIV1 gp41 (46 residues) assessed as effect on protein secondary structure measured as alpha-helicity in PBS buffer at pH 7.2 by circular dichroism assay (reference value: 117 %)
[2] = Half life in Sprague-Dawley rat at […], sc after 6 hrs; assay type: ADME, organism-based; settings: in vivo
[3] = Plasma concentration in Sprague-Dawley rat at […], sc after 6 hrs; assay type: ADME, organism-based
GP41 = GP41 (Human immunodeficiency virus 1, UniProt Q76270); test: Binding affinity to HIV1 gp41 (46 residues) by surface plasmon resonance method
[4] = tested on: Human immunodeficiency virus 1; test: Antiviral activity against HIV-1 SF33 infected in TZM-bl cells after 2 days by luciferase reporter gene assay; assay type: functional, organism-based; settings: Human immunodeficiency virus 1, SF33, TZM-bl, 48 h
[5] = Cytotoxicity against human TZM-bl cells assessed as reduction cell viability at <12.5 uM after 2 days by XTT assay; assay type: cell-based; settings: 48 h

Q: What does the source list for enfuvirtide?
A: Activity [1]: 67%; half-life at 6 h [2]: 1.5 h; concentration at 6 h [3]: < 1000 nM; Kd (GP41): 182 nM; EC50 [4]: 3 nM; EC90 [4]: 23 nM; Activity [5]: Non-toxic
